From the NIST ThermoML archive (doi:10.1016/j.jct.2017.03.006)
± gives the expanded uncertainty stated by the source.

Experiment: xn = mol fraction of the nth substance listed
Conditions: Liquid; for mass density: 293.15 K, Vibrating tube method; for viscosity: Concentric cylinders viscometry

Cc1ccc(C)c(C)c1 [1,2,4-trimethylbenzene] + CCCCO
mass density [kg/m3]
Conditions | x2 = 0 | x2 = 0.1005 | x2 = 0.2261 | x2 = 0.2999 | x2 = 0.3966 | x2 = 0.5289 | x2 = 0.6367 | x2 = 0.7249 | x2 = 0.7977 | x2 = 0.9131
100 kPa | – | – | – | 859.9 ± 0.7 | 854.5 ± 0.7 | 846.5 ± 0.7 | 839.4 ± 0.7 | 833.1 ± 0.7 | 827.5 ± 0.7 | 817.8 ± 0.7
1000 kPa | 875.7 ± 0.7 | 870.8 ± 0.7 | 864.3 ± 0.7 | 860.4 ± 0.7 | 855 ± 0.7 | 847.1 ± 0.7 | 840 ± 0.7 | 833.7 ± 0.7 | 828.1 ± 0.7 | 818.4 ± 0.7
5000 kPa | 878.2 ± 0.7 | 873.4 ± 0.7 | 867 ± 0.7 | 863.1 ± 0.7 | 857.8 ± 0.7 | 849.8 ± 0.7 | 842.8 ± 0.7 | 836.5 ± 0.7 | 831 ± 0.7 | 821.3 ± 0.7
10000 kPa | 881.4 ± 0.7 | 876.6 ± 0.7 | 870.2 ± 0.7 | 866.4 ± 0.7 | 861.1 ± 0.7 | 853.1 ± 0.7 | 846.1 ± 0.7 | 839.9 ± 0.7 | 834.3 ± 0.7 | 824.7 ± 0.7
20000 kPa | 887.3 ± 0.7 | 882.6 ± 0.7 | 876.2 ± 0.7 | 872.5 ± 0.7 | 867.2 ± 0.7 | 859.4 ± 0.7 | 852.3 ± 0.7 | 846.2 ± 0.7 | 840.6 ± 0.7 | 831.1 ± 0.7
30000 kPa | 892.9 ± 0.7 | 888.3 ± 0.7 | 881.9 ± 0.7 | 878.2 ± 0.7 | 873 ± 0.7 | 865.2 ± 0.7 | 858.2 ± 0.7 | 852.1 ± 0.7 | 846.5 ± 0.7 | 837.1 ± 0.8
40000 kPa | 898.2 ± 0.7 | 893.7 ± 0.7 | 887.4 ± 0.7 | 883.6 ± 0.7 | 878.5 ± 0.7 | 870.7 ± 0.8 | 863.7 ± 0.8 | 857.6 ± 0.8 | 852.1 ± 0.8 | 842.7 ± 0.8
50000 kPa | 903.2 ± 0.7 | 898.7 ± 0.7 | 892.4 ± 0.8 | 888.8 ± 0.8 | 883.6 ± 0.8 | 875.8 ± 0.8 | 868.9 ± 0.8 | 862.8 ± 0.8 | 857.3 ± 0.8 | 847.9 ± 0.8
60000 kPa | 908 ± 0.8 | 903.5 ± 0.8 | 897.3 ± 0.8 | 893.6 ± 0.8 | 888.6 ± 0.8 | 880.8 ± 0.8 | 873.8 ± 0.8 | 867.8 ± 0.8 | 862.3 ± 0.8 | 852.9 ± 0.8
70000 kPa | 912.6 ± 0.8 | 908.3 ± 0.8 | 901.9 ± 0.8 | 898.4 ± 0.8 | 893.2 ± 0.8 | 885.5 ± 0.8 | 878.6 ± 0.8 | 872.6 ± 0.8 | 867 ± 0.8 | 857.7 ± 0.8
80000 kPa | 916.9 ± 0.8 | 912.6 ± 0.8 | 906.4 ± 0.8 | 902.8 ± 0.8 | 897.6 ± 0.8 | 890 ± 0.8 | 883 ± 0.8 | 877 ± 0.8 | 871.6 ± 0.8 | 862.3 ± 0.8
90000 kPa | 921.1 ± 0.8 | 916.8 ± 0.8 | 910.6 ± 0.8 | 907 ± 0.8 | 901.9 ± 0.8 | 894.2 ± 0.8 | 887.4 ± 0.8 | 881.3 ± 0.8 | 875.9 ± 0.8 | 866.6 ± 0.9
100000 kPa | 925.1 ± 0.8 | 920.8 ± 0.8 | 914.7 ± 0.8 | 911.1 ± 0.8 | 906 ± 0.8 | 898.4 ± 0.8 | 891.5 ± 0.8 | 885.4 ± 0.9 | 880 ± 0.9 | 870.7 ± 0.9
120000 kPa | 932.8 ± 0.8 | 928.6 ± 0.8 | 922.5 ± 0.8 | 918.9 ± 0.8 | 913.9 ± 0.8 | 906.2 ± 0.8 | 899.3 ± 0.9 | 893.3 ± 0.9 | 887.9 ± 0.9 | 878.7 ± 0.9
140000 kPa | 939.9 ± 0.8 | 935.6 ± 0.8 | 929.8 ± 0.8 | 926 ± 0.8 | 921.1 ± 0.8 | 913.5 ± 0.9 | 906.7 ± 0.9 | 900.7 ± 0.9 | 895.4 ± 0.9 | 886.1 ± 0.9

viscosity [mPa·s], 100 kPa
Conditions | x2 = 0 | x2 = 0.1002 | x2 = 0.2327 | x2 = 0.3 | x2 = 0.3969 | x2 = 0.53 | x2 = 0.637 | x2 = 0.7975 | x2 = 0.9131
303.15 K | 0.779 ± 0.017 | 0.783 ± 0.017 | 0.818 ± 0.017 | 0.857 ± 0.018 | 0.919 ± 0.019 | 1.049 ± 0.022 | 1.203 ± 0.025 | 1.559 ± 0.032 | 1.916 ± 0.039
313.15 K | 0.692 ± 0.015 | 0.69 ± 0.015 | 0.716 ± 0.015 | 0.744 ± 0.016 | 0.787 ± 0.017 | – | – | – | –
